Reference: PubChem BioAssay AID248 (DTP/NCI, 2004)
“And” between values parts separate entries of the source, which are not always exact repeats. Identical values can stand only once. Toxic doses and inconclusive results are not listed. Cut-off read from the data, not from the text of the source: active = T/C of 150% or more; inactive = T/C below 125%.

System: L1210 leukemia ip in BDF1 mice, survival T/C
Assay: NCI In Vivo Anticancer Drug Screen. Data for tumor model L1210 Leukemia (intraperitoneal) in B6D2F1 (BDF1) mice
Details: endpoint: mean survival time, higher = longer survival
Outline: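 Ratio derived from survival: compound-dosed mice over vehicle-dosed mice, all bearing a transplantable tumor.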

[1] = dose: 100.0 mg/kg/injection, schedule: Q01DX009 (ip), vehicle: saline with Tween-80
[2] = dose: 100.0 mg/kg/injection, schedule: Q04DX003 (ip), vehicle: saline with Tween-80
[3] = dose: 200.0 mg/kg/injection, schedule: Q01DX009 (ip), vehicle: saline with Tween-80
[4] = dose: 200.0 mg/kg/injection, schedule: Q04DX003 (ip), vehicle: saline with Tween-80
[5] = dose: 400.0 mg/kg/injection, schedule: Q01DX009 (ip), vehicle: saline with Tween-80
[6] = dose: 400.0 mg/kg/injection, schedule: Q04DX003 (ip), vehicle: saline with Tween-80
[7] = dose: 100.0 mg/kg/injection, schedule: Q04DX002 (ip), vehicle: saline with Tween-80
[8] = dose: 200.0 mg/kg/injection, schedule: Q04DX002 (ip), vehicle: saline with Tween-80
[9] = dose: 400.0 mg/kg/injection, schedule: Q04DX002 (ip), vehicle: saline with Tween-80
[10] = dose: 100.0 mg/kg/injection, schedule: Q01DX001 (ip), vehicle: saline
[11] = dose: 200.0 mg/kg/injection, schedule: Q01DX001 (ip), vehicle: saline
[12] = dose: 400.0 mg/kg/injection, schedule: Q01DX001 (ip), vehicle: saline
[13] = dose: 100.0 mg/kg/injection, schedule: Q04DX003 (ip), vehicle: Klucel (hydroxypropylcellulose) (HPC)
[14] = dose: 200.0 mg/kg/injection, schedule: Q04DX003 (ip), vehicle: Klucel (hydroxypropylcellulose) (HPC)
[15] = dose: 25.0 mg/kg/injection, schedule: Q01DX009 (ip), vehicle: Klucel (hydroxypropylcellulose) (HPC)
[16] = dose: 50.0 mg/kg/injection, schedule: Q01DX009 (ip), vehicle: Klucel (hydroxypropylcellulose) (HPC)
[17] = dose: 100.0 mg/kg/injection, schedule: Q01DX009 (ip), vehicle: Klucel (hydroxypropylcellulose) (HPC)
[18] = dose: 400.0 mg/kg/injection, schedule: Q04DX003 (ip), vehicle: Klucel (hydroxypropylcellulose) (HPC)
[19] = dose: 100.0 mg/kg/injection, schedule: Q01DX001 (ip), vehicle: carboxymethylcellulose (CMC)
[20] = dose: 200.0 mg/kg/injection, schedule: Q01DX001 (ip), vehicle: carboxymethylcellulose (CMC)
[21] = dose: 400.0 mg/kg/injection, schedule: Q01DX001 (ip), vehicle: carboxymethylcellulose (CMC)
[22] = dose: 200.0 mg/kg/injection, schedule: Q01DX009 (ip), vehicle: Klucel (hydroxypropylcellulose) (HPC)
[23] = dose: 400.0 mg/kg/injection, schedule: Q01DX009 (ip), vehicle: Klucel (hydroxypropylcellulose) (HPC)

Measured: T/C

CC(=O)Oc1cc2c[n+](C)c3c4cc(OC(C)=O)c(OC(C)=O)cc4ccc3c2cc1OC(C)=O
inactive: dose: 20.0 mg/kg/injection, schedule: Q01DX009 (ip), vehicle: saline 101 % of control | dose: 40.0 mg/kg/injection, schedule: Q01DX009 (ip), vehicle: saline 109 % of control | dose: 80.0 mg/kg/injection, schedule: Q01DX009 (ip), vehicle: saline 104 % of control | dose: 120.0 mg/kg/injection, schedule: Q01DX009 (ip), vehicle: saline 91 % of control

COC(=O)c1ccc2oc(=O)cc(C)c2c1O
inactive: [1] 95 % of control | [2] 93 % of control | [3] 100 % of control | [4] 95 % of control | [5] 94 % of control | [6] 93 % of control

N#C/C(=C\c1cc(Cl)ccc1O)C1CCC([N+](=O)[O-])CC1 (configuration not stated)
inactive: [7] 98 % of control | [8] 113 % of control | [9] 106 % of control

CCOC(CCc1c(C)nc[nH]c1=O)OCC
inactive: dose: 100.0 mg/kg/injection, schedule: Q01DX009 (ip), vehicle: saline 90 % of control | dose: 200.0 mg/kg/injection, schedule: Q01DX009 (ip), vehicle: saline 98 % of control | dose: 400.0 mg/kg/injection, schedule: Q01DX009 (ip), vehicle: saline 95 % of control

CCCCCCC(C)S(=O)(=O)c1ccc(C)cc1 (configuration not stated)
inactive: [10] 87 % of control and 94 % of control | [11] 90 % of control and 91 % of control | [12] 94 % of control

Cc1ccc(S)c(C)c1
inactive: [13] 93 % of control | [14] 95 % of control

N#CSCC(=O)c1ccccc1
inactive: dose: 3.0 mg/kg/injection, schedule: Q01DX009 (ip), vehicle: Klucel (hydroxypropylcellulose) (HPC) 104 % of control | dose: 6.0 mg/kg/injection, schedule: Q01DX009 (ip), vehicle: Klucel (hydroxypropylcellulose) (HPC) 101 % of control | dose: 12.0 mg/kg/injection, schedule: Q01DX001 (ip), vehicle: saline 105 % of control | dose: 12.0 mg/kg/injection, schedule: Q01DX009 (ip), vehicle: Klucel (hydroxypropylcellulose) (HPC) 107 % of control | dose: 12.0 mg/kg/injection, schedule: Q04DX003 (ip), vehicle: saline 104 % of control | dose: 25.0 mg/kg/injection, schedule: Q01DX001 (ip), vehicle: saline 113 % of control | dose: 25.0 mg/kg/injection, schedule: Q04DX003 (ip), vehicle: saline 106 % of control | dose: 50.0 mg/kg/injection, schedule: Q01DX001 (ip), vehicle: saline 97 % of control | dose: 50.0 mg/kg/injection, schedule: Q04DX003 (ip), vehicle: saline 101 % of control

CCCCCC[C@@H](O)C/C=C\CCCCCCCC(=O)OC
inactive: [10] 97 % of control | [11] 97 % of control | [12] 103 % of control

COc1ccc(NC(=O)Nc2ccccc2OC)cc1
inactive: [1] 98 % of control | [2] 105 % of control | [3] 101 % of control | [4] 97 % of control | [5] 98 % of control | [6] 103 % of control

O=C(NC(CSC(c1ccccc1)c1ccccc1)C(=O)O)OCc1ccccc1 (configuration not stated)
inactive: [15] 103 % of control | [16] 100 % of control | [17] 100 % of control and 88 % of control | [13] 93 % of control | [14] 95 % of control | [18] 89 % of control

O=c1ccnc(/C=C/c2ccc(Cl)cc2)[nH]1
inactive: [3] 87 % of control | [5] 96 % of control

COC(=O)NS(=O)(=O)Nc1ccccc1
inactive: [7] 97 % of control | [8] 87 % of control | [9] 94 % of control

COc1cc(C(=O)C[n+]2ccccc2)ccc1O
inactive: [2] 93 % of control | [4] 93 % of control

CCOC(=O)OCc1ccco1
inactive: [19] 94 % of control | dose: 100.0 mg/kg/injection, schedule: Q01DX009 (ip), vehicle: carboxymethylcellulose (CMC) 101 % of control and 103 % of control | dose: 100.0 mg/kg/injection, schedule: Q04DX002 (ip), vehicle: carboxymethylcellulose (CMC) 98 % of control and 100 % of control | dose: 100.0 mg/kg/injection, schedule: Q04DX003 (ip), vehicle: carboxymethylcellulose (CMC) 102 % of control | [20] 89 % of control | dose: 200.0 mg/kg/injection, schedule: Q01DX009 (ip), vehicle: carboxymethylcellulose (CMC) 97 % of control and 109 % of control | dose: 200.0 mg/kg/injection, schedule: Q04DX002 (ip), vehicle: carboxymethylcellulose (CMC) 98 % of control and 101 % of control | dose: 200.0 mg/kg/injection, schedule: Q04DX003 (ip), vehicle: carboxymethylcellulose (CMC) 96 % of control | [21] 110 % of control | dose: 400.0 mg/kg/injection, schedule: Q04DX002 (ip), vehicle: carboxymethylcellulose (CMC) 103 % of control and 106 % of control | dose: 400.0 mg/kg/injection, schedule: Q04DX003 (ip), vehicle: carboxymethylcellulose (CMC) 112 % of control

COCCN1CCC(C)(CO)C1 (configuration not stated)
inactive: dose: 100.0 mg/kg/injection, schedule: Q04DX003 (ip), vehicle: saline 87 % of control | dose: 200.0 mg/kg/injection, schedule: Q04DX003 (ip), vehicle: saline 93 % of control | dose: 400.0 mg/kg/injection, schedule: Q04DX003 (ip), vehicle: saline 92 % of control

Cn1c2c(c(=O)[nH]c1=O)OCN(Cc1ccccc1)C2
inactive: dose: 50.0 mg/kg/injection, schedule: Q01DX001 (ip), vehicle: carboxymethylcellulose (CMC) 91 % of control | [19] 100 % of control | [20] 94 % of control | [21] 100 % of control

CCCCCCCCCC1(C)OCC(COC(N)=O)O1 (configuration not stated)
inactive: [15] 104 % of control | dose: 25.0 mg/kg/injection, schedule: Q04DX003 (ip), vehicle: Klucel (hydroxypropylcellulose) (HPC) 98 % of control | [16] 93 % of control | dose: 50.0 mg/kg/injection, schedule: Q04DX003 (ip), vehicle: Klucel (hydroxypropylcellulose) (HPC) 96 % of control | [17] 93 % of control | [13] 96 % of control | [22] 98 % of control | [14] 98 % of control | [23] 102 % of control | [18] 98 % of control

Clc1nc2ccccc2n2nnnc12
inactive: dose: 15.0 mg/kg/injection, schedule: Q04DX003 (ip), vehicle: saline 101 % of control | dose: 30.0 mg/kg/injection, schedule: Q04DX003 (ip), vehicle: saline 98 % of control | dose: 60.0 mg/kg/injection, schedule: Q04DX003 (ip), vehicle: saline 86 % of control

O=C1c2c(I)c(I)c(I)c(I)c2C(=O)N1CCO
inactive: [17] 92 % of control | [13] 94 % of control | [22] 97 % of control | [14] 97 % of control | [23] 104 % of control | [18] 92 % of control

C(=Nc1ccc2c3c(cccc13)-c1ccccc1-2)c1ccc2c(c1)OCO2
inactive: dose: 100.0 mg/kg/injection, schedule: Q01DX001 (ip), vehicle: other 101 % of control | dose: 200.0 mg/kg/injection, schedule: Q01DX001 (ip), vehicle: other 97 % of control | dose: 400.0 mg/kg/injection, schedule: Q01DX001 (ip), vehicle: other 94 % of control
